Where a name gives a salt, the structure may show the parent alone.
What was measured:
human orexin-1 receptor = target: T1, human orexin-1 receptor (Homo sapiens, UniProt O43613); experiment: Determination of orexin-1 receptor antagonist activity (FLIPR calcium mobilisation, HEK293 cells, against 3.0 nM human orexin-A); type: cell-based; details: HEK293 cells expressing human orexin-1 receptor; Kb=IC50/(1+([3/EC50]); agonist 3.0 nM human orexin-A
T1 construct: expressed in transfected cells; host or cells: HEK293
T1 sequence (O43613 1-425): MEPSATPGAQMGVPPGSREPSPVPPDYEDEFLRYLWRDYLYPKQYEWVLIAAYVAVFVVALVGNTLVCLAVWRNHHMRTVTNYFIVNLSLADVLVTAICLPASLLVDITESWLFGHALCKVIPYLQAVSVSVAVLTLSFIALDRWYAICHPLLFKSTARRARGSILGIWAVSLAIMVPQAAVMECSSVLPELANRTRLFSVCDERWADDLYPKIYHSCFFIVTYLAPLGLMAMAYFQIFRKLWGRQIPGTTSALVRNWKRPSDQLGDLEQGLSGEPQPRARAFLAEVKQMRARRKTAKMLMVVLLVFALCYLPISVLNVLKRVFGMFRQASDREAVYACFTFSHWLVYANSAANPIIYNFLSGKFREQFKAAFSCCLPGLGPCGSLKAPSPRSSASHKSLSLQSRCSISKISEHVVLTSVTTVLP
Method: The orexin-1 receptor antagonist activity of the compounds of formula (I) was determined in accordance with the following experimental method.
HEK293 cells expressing the human orexin-1 receptor were grown in cell medium (MEM medium with Earl's salts) containing 2 mM L-Glutamine, 0.4 mg/mL G418 Sulfate from GIBCO BRL and 10% heat inactivated fetal calf serum from Gibco BRL. The cells were seeded at 20,000 cells/100 μl/well into 96-well black clear bottom sterile plates from Costar which had been pre-coated with 10 μg/well of poly-L-lysine from SIGMA. The seeded plates were incubated overnight at 37° C. in 5% CO2.
Agonists were prepared as 1 mM stocks in water:DMSO (1:1). […] Antagonist IC^50 values (the concentration of compound needed to inhibit 50% of the agonist response) were determined against 3.0 nM human orexin-A using 11×half log unit dilutions in Tyrode's buffer containing 10% DMSO and probenecid. On the day of assay 50 μl of cell medium containing probenecid (Sigma) and Fluo3AM (Texas Fluorescence Laboratories) was added (Quadra, Tomtec) to each well to give final concentrations of 2.5 mM and 4 μM, respectively. […] Cell plates were then transferred to the Fluorescent Imaging Plate Reader (FLIPR, Molecular Devices) instrument and maintained at 37° C. in humidified air. […] Agonists were added (by the FLIPR) after 20 sec (during continuous reading). […]

rat = experiment: Rat sleep/EEG studies, central administration; type: in vivo; details: central administration at the onset of the normal sleep period
Text: Therefore antagonists of its receptor may be useful in the treatment of sleep disorders including insomnia.

freely-feeding rats = details: central administration, 4 hour time period; cited from earlier work

Kb (human orexin-1 receptor)	Compound	effect on arousal / sleep (rat)	increase in food intake over control rats receiving vehicle (freely-feeding rats)
< 31.6 nM	COc1ccc(NC(=O)Nc2cc(C)nc3cccnc23)cc1C(=O)NCC1CC1 [Example 2, N-Cyclopropylmethyl-2-methoxy-5-[3-(2-methyl-[1,5]-naphthyridin-4-yl)ureido]benzamide Hydrochloride]	–	–
–	orexin-A: ligand for the orexin-1 receptor, agonist of the orexin receptors; 33-residue peptide, sequence given in the 1st table (QPLPDCCRQKTCSCRLYELLHGAGNHAAGILTL; Orexin-A; UniProt O43612 34-66, looked up)	dose-related increase in arousal	approximately four-fold

Reference: US6596730B1, “Phenyl urea and phenyl thiourea derivatives” (SmithKline Beecham p.l.c., priority 1999, dated 2003)
